In patent publication US20100216827A1 (Metabolex, Inc., priority 2008, published 2010):
Read-outs that look alike come from different tables or passages of the source.

Target: T1, human GPR120 (Homo sapiens, UniProt Q5NUL3)
T1 construct: host or cells: HEK293 cells coexpressing Gqi5
T1 sequence (Q5NUL3 1-361): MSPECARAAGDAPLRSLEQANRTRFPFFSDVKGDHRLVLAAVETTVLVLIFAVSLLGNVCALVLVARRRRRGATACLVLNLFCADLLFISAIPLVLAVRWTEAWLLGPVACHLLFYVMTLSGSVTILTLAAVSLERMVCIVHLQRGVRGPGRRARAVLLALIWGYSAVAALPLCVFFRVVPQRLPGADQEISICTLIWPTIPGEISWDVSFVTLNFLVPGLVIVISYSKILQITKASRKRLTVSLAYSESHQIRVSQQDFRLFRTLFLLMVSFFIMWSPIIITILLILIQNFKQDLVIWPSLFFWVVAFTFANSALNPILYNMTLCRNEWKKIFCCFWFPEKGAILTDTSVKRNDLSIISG
Assay: Intracellular Ca2+ (FLIPR Calcium 4, Flexstation) assay in human GPR120 stable HEK293 cell line coexpressing Gqi5
Assay type: cell-based
Conditions: for % Activity at 5 μM: 5 μM compound compared to the maximal activity of GW9508 at 6.7 μM (100%); for EC50: human GPR120 stably expressing cells, 8 concentrations 0.00001 to 20 μM
Experimental: Human GPR120 stable cell line was purchased from Multispan Inc (26219 Eden Landing Road, Hayward, Calif. 94545). This GPR120 cell line was generated in HEK293 cells coexpressing Gqi5. In this cell line, the Flag epitope tag (DYKDDDDK) was fused to the amino terminus of human GPR120 protein.
The concentration of intracellular Ca^2+ was measured as described below. Human GPR120 cells were plated in 96 well plates (Poly-D-Lysine coated black/clear Plate, Greiner Bio-One) at 70,000 cells per well and cultured overnight in conditions of 37° C. and 5% CO2. A Ca^2+ assay dye stock solution was prepared by adding 10 mL of assay buffer (HBSS/20 mM HEPES, pH 7.4) to FLIPR Calcium 4 Assay Bulk Kit (Molecular Devices). The 10 mL of Ca^2+ assay dye solution was prepared by further diluting 0.5 mL of Ca^2+ assay dye stock solution with 10 mL of assay buffer. The medium of the cells was removed and immediately 100 μl of the Ca^2+ assay dye solution was dispensed into each well followed by incubation at 37° C. and 5% CO2 for 50 minutes to incorporate the Ca^2+ dye into the cells. The cell plate was then placed in the Flexstation (Molecular Devices) for 20 minutes at 37° C. Compounds were dissolved in 100% DMSO and diluted to desired concentrations with assay buffer and placed in Flexstation simultaneously with the cell plate for 20 minute incubation at 37° C. prior to reading. Fluorescence intensity was measured immediately following compound addition (25 μl/well) on the Flexstation at an excitation wavelength of 485 nm and an emission wavelength of 525 with 515 nm auto cutoff. The resulting increase in fluorescence intensities corresponds to increases in intracellular Ca^2+ levels.
Compounds were dissolved in 100% DMSO to a concentration of 20 mM to provide stock solutions. To determine activity against human GPR120, compounds were added with human GPR120 stably expressing cells (described above), at 8 desired concentrations ranging from 0.00001 to 20 μM, in 96 well plates and fluorescence intensities were measured for 90 seconds with 2-second intervals. An EC50 value (concentration of the GPR120 agonist where 50% of the agonist's maximal activity is observed) was calculated using the changes (Max-Min) of fluorescent intensity.
To determine percent activity for a tested compound, the fluorescence intensity value obtained at a particular concentration were compared to the maximal fluorescence intensity value obtained for reference compound GW9508 (4-[[(3-phenoxyphenyl)methyl]amino]benzene propanoic acid; British Journal of Pharmacology 2006 148, 619-628) that acts as a full agonist of the GPR120 receptor. The maximal activity of GW9508 is designated as 100% activity. Typically, the GW9508 activity reached a maximum at a concentration of approximately 6.7 μM. Activities of compounds that were tested according to this method are shown in Table 1 below and are expressed as % activity at 5 μM compound compared to the maximal activity of GW9508 at 6.7 μM.

[1] = read-out: EC50 between >1 μM and ≦10 μM

Cc1onc(-c2ccccc2)c1COc1c(F)cc(COCC(=O)O)cc1F [Example 34, 2-(3,5-difluoro-4-((5-methyl-3-phenylisoxazol-4-yl)methoxy)benzyloxy)acetic acid]
% Activity at 5 μM: 74% | EC50 [1]: 1 to 10 µM

CCc1ccc(-n2nc(C)cc2COc2ccc(CCC(C)C(=O)O)cc2)cc1 (centres unmarked) [Example 132, 4-(4-((1-(4-ethylphenyl)-3-methyl-1H-pyrazol-5-yl)methoxy)phenyl)-2-methylbutanoic acid]
% Activity at 5 μM: 85% | EC50 [1]: 1 to 10 µM

CCc1ccc(-n2nc(C)cc2COc2ccc(CCCC(=O)O)cc2)cc1 [Example 129, 4-(4-((1-(4-ethylphenyl)-3-methyl-1H-pyrazol-5-yl)methoxy)phenyl)butanoic acid]
% Activity at 5 μM: 99% | EC50 (read-out: EC50 ≦ 1 μM): ≤ 1 µM

Cc1cc(-c2onc(C)c2COc2c(F)cc(CCC(=O)O)cc2F)no1 [Example 19, 3-(4-((3′,5-dimethyl-3,5′-biisoxazol-4′-yl)methoxy)-3,5-difluorophenyl)propanoic acid]
% Activity at 5 μM: 69% | EC50 (read-out: EC50 ≦ 1 μM): ≤ 1 µM

CC(Cc1cc(F)c(OCc2ccnn2-c2ccc(Cl)cc2)c(F)c1)C(=O)O (centres unmarked) [Example 93, 3-(4-((1-(4-chlorophenyl)-1H-pyrazol-5-yl)methoxy)-3,5-difluorophenyl)-2-methylpropanoic acid]
% Activity at 5 μM: 108% | EC50 (read-out: EC50 ≦ 1 μM): ≤ 1 µM

CCOC(Cc1cc(F)c(OCc2cc(C)nn2-c2ccc(Cl)cc2)c(F)c1)C(=O)O (centres unmarked) [Example 102, 3-(4-((1-(4-chlorophenyl)-3-methyl-1H-pyrazol-5-yl)methoxy)-3,5-difluorophenyl)-2-ethoxypropanoic acid]
% Activity at 5 μM: 61% | EC50 [1]: 1 to 10 µM

CCc1ccc(-n2nc(C)cc2COc2c(F)cc(C[C@H](C)C(=O)O)cc2F)cc1 [Example 99, (S)-3-(4-((1-(4-ethylphenyl)-3-methyl-1H-pyrazol-5-yl)methoxy)-3,5-difluorophenyl)-2-methylpropanoic acid]
% Activity at 5 μM: 73% | EC50 (read-out: EC50 ≦ 1 μM): ≤ 1 µM

O=C(O)CCc1cc(F)c(OCc2snnc2-c2ccccc2)c(F)c1 [Example 2]
% Activity at 5 μM: 77% | EC50 (read-out: EC50 ≦ 1 μM): ≤ 1 µM

O=C(O)CCc1cc(F)c(OCc2ncsc2-c2ccccc2)c(F)c1 [Example 28, 3-(3,5-difluoro-4-((5-phenylthiazol-4-yl)methoxy)phenyl)propanoic acid]
% Activity at 5 μM: 87% | EC50 (read-out: EC50 ≦ 1 μM): ≤ 1 µM

Cc1cc(COc2ccc(C=C3CC(C(=O)O)C3)cc2)n(-c2ccc(Cl)cc2)n1 (centres unmarked) [Example 111, 3-(4-((1-(4-Chlorophenyl)-3-methyl-1H-pyrazol-5-yl)methoxy)benzylidene)cyclobutanecarboxylic acid]
% Activity at 5 μM: 80% | EC50 (read-out: EC50 ≦ 1 μM): ≤ 1 µM

Cc1cc(COc2c(F)cc(CC3CC3C(=O)O)cc2F)n(-c2ccc(Cl)cc2)n1 (centres unmarked) [Example 55, 2-(4-((1-(4-chlorophenyl)-3-methyl-1H-pyrazol-5-yl)methoxy)-3,5-difluorobenzyl)cyclopropanecarboxylic acid]
% Activity at 5 μM: 66% | EC50 (read-out: EC50 ≦ 1 μM): ≤ 1 µM

Cc1cc(COc2c(F)cc(CCC(=O)O)cc2F)n(-c2ccc(F)cc2)n1 [Example 47, 3-(3,5-difluoro-4-((1-(4-fluorophenyl)-3-methyl-1H-pyrazol-5-yl)methoxy)phenyl)propanoic acid]
% Activity at 5 μM: 71% | EC50 (read-out: EC50 ≦ 1 μM): ≤ 1 µM

Cc1cc(COc2ccc(C(C)(C)CC(=O)O)cc2)n(-c2ccc(Cl)cc2)n1 [Example 125, 3-(4-((1-(4-chlorophenyl)-3-methyl-1H-pyrazol-5-yl)methoxy)phenyl)-3-methylbutanoic acid]
% Activity at 5 μM: 47% | EC50 [1]: 1 to 10 µM

CCc1ccc(-n2nc(C)cc2COc2ccc(C(C)(C)CC(=O)O)cc2)cc1 [Example 126, 3-(4-((1-(4-ethylphenyl)-3-methyl-1H-pyrazol-5-yl)methoxy)phenyl)-3-methylbutanoic acid]
% Activity at 5 μM: 48% | EC50 [1]: 1 to 10 µM

Cc1cc(COc2c(F)cc(CC(C)C(=O)O)cc2F)n(-c2ccc(C(F)(F)F)cc2)n1 (centres unmarked) [Example 77, 3-(3,5-difluoro-4-((3-methyl-1-(4-(trifluoromethyl)phenyl)-1H-pyrazol-5-yl)methoxy)phenyl)-2-methylpropanoic acid]
% Activity at 5 μM: 95% | EC50 (read-out: EC50 ≦ 1 μM): ≤ 1 µM

Cc1cc(COc2ccc(CC(C)C(=O)O)cc2C)n(-c2ccc(Cl)cc2)n1 (centres unmarked) [Example 109, 3-(4-((1-(4-Chlorophenyl)-3-methyl-1H-pyrazol-5-yl)methoxy)-3-methylphenyl)-2-methylpropanoic acid]
% Activity at 5 μM: 114% | EC50 (read-out: EC50 ≦ 1 μM): ≤ 1 µM

CC(Cc1cc(F)c(OCc2cc(C(F)(F)F)nn2-c2ccc(Cl)cc2)c(F)c1)C(=O)O (centres unmarked) [Example 117, 3-(4-((1-(4-chlorophenyl)-3-(trifluoromethyl)-1H-pyrazol-5-yl)methoxy)-3,5-difluorophenyl)-2-methylpropanoic acid]
% Activity at 5 μM: 105% | EC50 (read-out: EC50 ≦ 1 μM): ≤ 1 µM

Cc1cc(COc2ccc(CC(C)C(=O)O)cc2C(F)(F)F)n(-c2ccc(Cl)cc2)n1 (centres unmarked) [Example 78, 3-(4-((1-(4-chlorophenyl)-3-methyl-1H-pyrazol-5-yl)methoxy)-3-(trifluoromethyl)phenyl)-2-methylpropanoic acid]
% Activity at 5 μM: 92% | EC50 (read-out: EC50 ≦ 1 μM): ≤ 1 µM

Cc1cc(COc2c(F)cc(C3=C(C(=O)O)CCC3)cc2F)n(-c2ccc(Cl)cc2)n1 [Example 107, 2-(4-((1-(4-Chlorophenyl)-3-methyl-1H-pyrazol-5-yl)methoxy)-3,5-difluorophenyl)cyclopent-1-enecarboxylic acid]
% Activity at 5 μM: 32% | EC50 [1]: 1 to 10 µM

Cc1cc(C)cc(-n2nc(C)cc2COc2c(F)cc(CC(C)C(=O)O)cc2F)c1 (centres unmarked) [Example 92, 3-(4-((1-(3,5-dimethylphenyl)-3-methyl-1H-pyrazol-5-yl)methoxy)-3,5-difluorophenyl)-2-methylpropanoic acid]
% Activity at 5 μM: 58% | EC50 (read-out: EC50 ≦ 1 μM): ≤ 1 µM

Cc1cc(COc2ccc3c(c2)CCC3CC(=O)O)n(-c2ccc(Cl)cc2)n1 (centres unmarked) [Example 59, 2-(5-((1-(4-chlorophenyl)-3-methyl-1H-pyrazol-5-yl)methoxy)-2,3-dihydro-1H-inden-1-yl)acetic acid]
% Activity at 5 μM: 100% | EC50 (read-out: EC50 ≦ 1 μM): ≤ 1 µM

Cc1cc(COc2c(F)cc(CC(C)C(=O)O)cc2F)n(-c2ccc(C(C)C)cc2)n1 (centres unmarked) [Example 76, 3-(3,5-difluoro-4-((1-(4-isopropylphenyl)-3-methyl-1H-pyrazol-5-yl)methoxy)phenyl)-2-methylpropanoic acid]
% Activity at 5 μM: 85% | EC50 (read-out: EC50 ≦ 1 μM): ≤ 1 µM

CCc1ccc(-n2nccc2COc2c(F)cc(CC(C)C(=O)O)cc2F)cc1 (centres unmarked) [Example 100, 3-(4-((1-(4-ethylphenyl)-1H-pyrazol-5-yl)methoxy)-3,5-difluorophenyl)-2-methylpropanoic acid]
% Activity at 5 μM: 109% | EC50 (read-out: EC50 ≦ 1 μM): ≤ 1 µM

O=C(O)CCc1cc(F)c(OCc2cc(C(F)(F)F)nn2-c2ccccc2)c(F)c1 [Example 65, 3-(3,5-difluoro-4-((1-phenyl-3-(trifluoromethyl)-1H-pyrazol-5-yl)methoxy)phenyl)propanoic acid]
% Activity at 5 μM: 86% | EC50 (read-out: EC50 ≦ 1 μM): ≤ 1 µM

CCc1ccc(-n2nc(C)cc2COc2ccc(CC(C)C(=O)O)cc2C)cc1 (centres unmarked) [Example 95, 3-(4-((1-(4-ethylphenyl)-3-methyl-1H-pyrazol-5-yl)methoxy)-3-methylphenyl)-2-methylpropanoic acid]
% Activity at 5 μM: 100% | EC50 (read-out: EC50 ≦ 1 μM): ≤ 1 µM
